≈ marks a conversion by molar mass, not a printed value. Read-outs that look alike come from different tables or passages of the source.
Assays:
CK98003 (Candida krusei) = test: Anti-Candida in vitro assay, CK98003; assay type: cell-based; settings: Pichia kudriavzevii; Candida krusei CK98003, mean of triplicate; read-out: MIC (IC80) CK98003
Description: (§1) Test fungal strains were obtained from the American Type Culture Collection (ATCC) or were clinical isolates from the Laboratory of Parasitology and Medical Mycology, Centre Hospitalier Universitaire (CHU) of Nantes. The strains were maintained on Sabouraud agar slants and were subcultured 24 h before used. The activity of the target compounds 8a–g and 11a–m was determined by the method previously described. Briefly, molecules were diluted in RPMI 1640 medium supplemented with 0.165 M morpholinopropanesulphonic acid (Sigma-Aldrich, Saint-Quentin Fallavier, France), 2% glucose, and antibiotics. Candida suspensions were prepared in RPMI 1640 medium (Sigma-Aldrich, Saint-Quentin Fallavier, France) adjusted to give a final concentration of 10^3 cells/mL, and a 96-well microplate (Nunc, D. Dutscher, Brumath, France) was seeded with 100 µL. Each concentration of molecules (100 µL) to be tested was added (in triplicate) and plates were incubated at 37 °C for 24 h. The cellular viability was evaluated on the Fluorolite 1000 (Dynatech, France) with an excitation at 550 nm and an emission at 590 nm after a 4 h incubation with 10 µL of Alamar Blue®. […] MIC was expressed as the mean of the triplicate values. KTC and FLC were used as standards.

C. albicans CA98001 = test: Anti-Candida in vitro assay (Alamar Blue), C. albicans CA98001; assay type: cell-based; settings: MIC = IC80, 24 h at 37 °C, mean of triplicate; for MIC: Candida albicans, CA98001, 24 h
Description: as §1

CK98002 (Candida krusei) = test: Anti-Candida in vitro assay, CK98002; assay type: cell-based; settings: Pichia kudriavzevii; Candida krusei CK98002, mean of triplicate; read-out: MIC (IC80) CK98002
Description: as §1

[1] = test system: ATCC6258 Candida krusei strain; test: Anti-Candida in vitro assay, ATCC6258; assay type: cell-based; settings: Pichia kudriavzevii; Candida krusei ATCC6258, mean of triplicate; read-out: MIC (IC80) ATCC6258
Description: as §1

CYP11B1 = test system: CYP11B1; parameters: method as in PMID 7663533; settings: cited from earlier work
[2] = test system: ATCC2091 Candida albicans strain; test: Anti-Candida in vitro assay, ATCC2091; assay type: cell-based; settings: Candida albicans ATCC2091, mean of triplicate; read-out: MIC (IC80) ATCC2091
Description: as §1

[3] = test system: CL98001 (Candida lusitaniae); test: Anti-Candida in vitro assay, CL98001; assay type: cell-based; settings: Clavispora lusitaniae; Candida lusitaniae CL98001, mean of triplicate; read-out: MIC (IC80) CL98001
Description: as §1

MRC5 toxicity assay = assay type: cell-based, human; settings: human, MRC-5 cells, 96-h incubation, mean of triplicate, read-out: Cytotoxicity IC50 on MRC-5 cells
Description: (§2) The cytotoxicity of compounds was studied with human fibroblast (MRC5). Cells were grown in RPMI 1640 medium (Sigma-Aldrich, Saint-Quentin Fallavier, France) supplemented with 10% fetal bovin serum (Sigma–Aldrich). Drugs were tested at three concentrations (100, 10, and 1 µM) in triplicate. After a 96-h incubation time, cytotoxicity was measured on the Fluorolite 1000 (Dynatech, Guyancourt, France) after a 4-h incubation time with Uptiblue® (Interchim, Montluçon, France). Inhibitory concentration 50 is a mean of triplicate values. A toxicity index was determined as follow: IC50 against MRC5/Geometric mean of the MICs against Candida spp..

[4] = test system: CA98005 (Candida albicans); test: Anti-Candida in vitro assay, CA98005; assay type: cell-based; settings: Candida albicans CA98005, mean of triplicate; read-out: MIC (IC80) CA98005
Description: as §1

[5] = test system: ATCC90018 Candida parapsilosis strain; test: Anti-Candida in vitro assay, ATCC90018; assay type: cell-based; settings: Lodderomyces parapsilosis; Candida parapsilosis ATCC90018, mean of triplicate; read-out: MIC (IC80) ATCC90018
Description: as §1

[6] = test system: CA98002 (Candida albicans); test: Anti-Candida in vitro assay, CA98002; assay type: cell-based; settings: Candida albicans CA98002, mean of triplicate; read-out: MIC (IC80) CA98002
Description: as §1

[7] = test system: human fetal lung fibroblast (MRC-5) cells; test: MRC5 toxicity assay; assay type: cell-based; settings: 96-h incubation, mean of triplicate, read-out: Cytotoxicity IC50 on MRC-5 cells
Description: as §2

[8] = target: T1, 17α-hydroxylase/17,20-lyase (CYP17) (Homo sapiens, UniProt P05093); test: In vitro inhibition of 17α-hydroxylase/17,20-lyase; assay type: biochemical; settings: mean of two experiments in duplicate
T1 sequence (P05093 1-508): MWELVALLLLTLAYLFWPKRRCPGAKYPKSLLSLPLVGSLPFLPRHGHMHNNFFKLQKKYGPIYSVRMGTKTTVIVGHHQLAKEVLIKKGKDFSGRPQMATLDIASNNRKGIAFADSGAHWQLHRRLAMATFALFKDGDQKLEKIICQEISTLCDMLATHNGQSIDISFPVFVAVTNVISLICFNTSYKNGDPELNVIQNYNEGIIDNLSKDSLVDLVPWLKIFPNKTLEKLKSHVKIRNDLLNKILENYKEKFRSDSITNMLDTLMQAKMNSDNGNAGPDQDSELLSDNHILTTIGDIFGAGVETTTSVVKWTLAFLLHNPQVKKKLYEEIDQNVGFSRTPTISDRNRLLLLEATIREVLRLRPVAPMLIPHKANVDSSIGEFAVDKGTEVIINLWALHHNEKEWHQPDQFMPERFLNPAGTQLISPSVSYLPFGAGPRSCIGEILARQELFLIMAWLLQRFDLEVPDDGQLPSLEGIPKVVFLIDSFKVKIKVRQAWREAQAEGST
Description: The assay was performed similar to described methods [29, 52]. […] Microsomal protein was added to start the reaction. […] After the addition of 1 mL EtOAc, the vials were shaken then centrifuged. The organic phase was removed, vortexed with phosphate buffer (250 µL), 1 M aqueous HCl (50 µL), and then dried. Aliquots of 25 µL methanol, containing 250 pmol of fluorocortisol acetate as internal standard, were added to the extracts. The samples (20 µL) were submitted to HPLC (RP-8 column, methanol/water 1:1, v/v) and measured using UV (240 nm).

CYP11B2 = test system: CYP11B2; parameters: method as in PMID 21193036; settings: another similar study; cited from earlier work
aromatase (CYP19) = target: T2, aromatase (CYP19) (Homo sapiens, UniProt P11511); test: In vitro inhibition of aromatase; assay type: biochemical
T2 construct: Microsomal protein (0.1 mg) was added to start the reaction; from tissue; host or cells: microsomes; ('human placental microsomes')
T2 sequence (P11511 1-503): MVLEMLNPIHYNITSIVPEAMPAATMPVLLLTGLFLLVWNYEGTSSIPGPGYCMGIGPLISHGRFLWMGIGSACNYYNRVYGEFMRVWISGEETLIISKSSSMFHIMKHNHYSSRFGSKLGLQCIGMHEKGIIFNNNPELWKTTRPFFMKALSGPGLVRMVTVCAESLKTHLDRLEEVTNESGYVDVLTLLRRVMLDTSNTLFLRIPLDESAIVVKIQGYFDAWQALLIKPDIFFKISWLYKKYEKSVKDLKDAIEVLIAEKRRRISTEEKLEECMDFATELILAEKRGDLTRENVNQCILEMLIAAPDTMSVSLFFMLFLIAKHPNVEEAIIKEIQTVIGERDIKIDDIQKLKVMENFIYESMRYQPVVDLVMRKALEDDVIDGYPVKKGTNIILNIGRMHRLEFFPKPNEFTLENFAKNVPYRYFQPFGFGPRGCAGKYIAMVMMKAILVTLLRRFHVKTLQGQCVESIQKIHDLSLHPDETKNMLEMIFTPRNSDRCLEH
Description: The assay was performed according to previously described methods [49, 50, 51] by monitoring the enzyme activity by measuring the ^3H2O formed from [1β-^3H]androstenedione during aromatization. […] Microsomal protein (0.1 mg) was added to start the reaction. After incubation of 15 min at 30 °C, the reaction was stopped by adding 200 µL of a cold HgCl2 solution (1 mM). After the addition of 200 µL of an aqueous dextran-coated charcoal (DCC) suspension (2%), the vials were shaken then centrifuged to separate the charcoal-absorbed steroids. Aliquots of the supernatant were assayed for ^3H2O by counting in a scintillation mixture using a LKB-Wallac β-counter.

[9] = MRC-5 human fetal lung fibroblast cells

Row | Compound | MIC (CK98003 (Candida krusei)) | MIC (C. albicans CA98001) | MIC (= IC80) C. albicans CA98001 (C. albicans CA98001) | MIC (CK98002 (Candida krusei)) | MIC [1] | CYP11B1 inhibition (CYP11B1) | MIC [2] | MIC [3] | IC50 at 96 h (MRC5 toxicity assay; [9]) | MIC [4] | MIC [5] | MIC [6] | IC50 [7] | melting point | CYP17 IC50 [8] | IC50 at 96 h (MRC5 toxicity assay) | CYP11B2 inhibition (CYP11B2) | inhibition at 36 µM (aromatase (CYP19); at 36 µM) | IC50 (aromatase (CYP19); mean of at least two experiments in duplicate) | IC50 [8]
1 | OC(Cn1cncn1)(Cn1cncn1)c1ccc(F)cc1F [FLC, fluconazole, reference compound] | 6.7 µg/mL (≈ 21.9 µM) | 0.02 µg/mL (≈ 0.0653 µM) | 0.02 µg/mL (≈ 0.0653 µM) | 2 µg/mL (≈ 6.53 µM) | 7.5 µg/mL (≈ 24.5 µM) | minor inhibitor | 0.07 µg/mL (≈ 0.229 µM) | 0.55 µg/mL (≈ 1.8 µM) | > 100 µM | 0.57 µg/mL (≈ 1.86 µM) | 0.6 µg/mL (≈ 1.96 µM) | 1 µg/mL (≈ 3.27 µM) |  |  |  |  |  |  |  | 
2 | Cc1c(C)n(CC(O)(Cn2cncn2)c2ccc(Cl)cc2Cl)c2ccccc12 (centres unmarked) [Compound 11k, 2-(2,4-Dichlorophenyl)-3-(2,3-dimethyl-1H-indol-1-yl)-1-(1H-1,2,4-triazol-1-yl)propan-2-ol] | > 41.5 µg/mL | 1.25 µg/mL (≈ 3 µM) |  | 20.2 µg/mL (≈ 48.7 µM) | 25.3 µg/mL (≈ 60.9 µM) |  | 2.74 µg/mL (≈ 6.6 µM) | 2.87 µg/mL (≈ 6.9 µM) | ~97 µM | 2.99 µg/mL (≈ 7.2 µM) | 9.76 µg/mL (≈ 23.5 µM) | 1.12 µg/mL (≈ 2.7 µM) | 97.3 µM | 123 to 124 °C |  |  |  |  |  | 
3 | N#Cc1ccc(C2CCCc3cncn32)cc1 (centres unmarked) [fadrozole, reference compound] |  |  |  |  |  |  |  |  |  |  |  |  |  |  | not active |  |  |  |  | 
4 | CC(=O)N1CCN(c2ccc(OCC3COC(Cn4ccnc4)(c4ccc(Cl)cc4Cl)O3)cc2)CC1 (centres unmarked) [KTC, ketoconazole, reference compound] | 0.43 µg/mL (≈ 0.809 µM) | 0.005 µg/mL (≈ 0.00941 µM) |  | 0.37 µg/mL (≈ 0.696 µM) | 0.079 µg/mL (≈ 0.149 µM) | strong inhibitor | 0.008 µg/mL (≈ 0.0151 µM) | 0.007 µg/mL (≈ 0.0132 µM) |  | 0.006 µg/mL (≈ 0.0113 µM) | 0.064 µg/mL (≈ 0.12 µM) | 0.009 µg/mL (≈ 0.0169 µM) |  |  |  | 69.1 µM | 100% |  |  | 
5 | OC(Cn1cncn1)(Cn1ccc2ccccc21)c1ccc(F)cc1F (centres unmarked) [Compound 11d, 2-(2,4-Difluorophenyl)-3-(1H-indol-1-yl)-1-(1H-1,2,4-triazol-1-yl)-propan-2-ol] | 24.1 µg/mL (≈ 67.9 µM) | 0.0198 µg/mL (≈ 0.0559 µM) |  | 1.55 µg/mL (≈ 4.37 µM) | 2.18 µg/mL (≈ 6.15 µM) |  | 0.021 µg/mL (≈ 0.0593 µM) | 0.021 µg/mL (≈ 0.0593 µM) | > 100 µM | 0.064 µg/mL (≈ 0.181 µM) | 0.201 µg/mL (≈ 0.567 µM) | 0.026 µg/mL (≈ 0.0734 µM) | ~197 µM | 119 to 120 °C |  |  |  | 89% | 3.58 µM | 
6 | COc1ccc2c(c1)CCC(Cc1cnc[nH]1)=C2C [BW19, 4-(6-methoxy-1-methyl-3,4-dihydro-naphthalen-2-ylmethyl)-1H-imidazole, reference compound] |  |  |  |  |  |  |  |  |  |  |  |  |  |  |  |  |  |  |  | 0.15 µM
7 | Cc1cc2ccccc2n1CC(O)(Cn1cncn1)c1ccc(F)cc1F (centres unmarked) [Compound 11f, 2-(2,4-Difluorophenyl)-3-(2-methyl-1H-indol-1-yl)-1-(1H-1,2,4-triazol-1-yl)propan-2-ol] | 5.45 µg/mL (≈ 14.8 µM) | 0.022 µg/mL (≈ 0.0597 µM) |  | 7.59 µg/mL (≈ 20.6 µM) | 17.6 µg/mL (≈ 47.7 µM) |  | 0.199 µg/mL (≈ 0.54 µM) | 0.232 µg/mL (≈ 0.63 µM) | ~190 µM | 0.516 µg/mL (≈ 1.4 µM) | 2.5 µg/mL (≈ 6.8 µM) | 0.302 µg/mL (≈ 0.82 µM) |  | 125 to 126 °C |  |  |  |  |  | 
8 | Cc1cc2ccccc2n1CC(O)(Cn1cncn1)c1ccc(Cl)cc1Cl (centres unmarked) [Compound 11g, 2-(2,4-Dichlorophenyl)-3-(2-methyl-1H-indol-1-yl)-1-(1H-1,2,4-triazol-1-yl)propan-2-ol] | > 40 µg/mL | 0.0058 µg/mL (≈ 0.0145 µM) |  | > 40 µg/mL | > 40 µg/mL |  | 0.526 µg/mL (≈ 1.31 µM) | 0.181 µg/mL (≈ 0.451 µM) | 157 µM | 0.269 µg/mL (≈ 0.67 µM) | > 40 µg/mL | 0.321 µg/mL (≈ 0.8 µM) |  | 170 to 171 °C |  |  |  |  |  | 
